The record followed here is patent publication US11365192B2, “Pyridine compound substituted with azole” (TAISHO PHARMACEUTICAL CO., LTD., priority 2017, dated 2022).

By IC50 is commonly meant the point on the concentration scale where inhibition reaches its midpoint. Read a high IC50 as weaker potency in that assay.

The target of assay [1] is human CYP4F2 (Homo sapiens (Human), UniProt P78329). In words: Inhibition test against 20-HETE producing enzyme CYP4F2 (luciferine derivative, luminescence). The format is biochemical. The procedure, abridged: (§1)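 IC50 derived from luminescence after 60 min at room temperature with membrane fractions of E. coli expressing each human CYP (100 μg/mL protein). For CYP4A11, 60 μM luciferin derivative in 100 mM Tris-HCl pH 7.5 with NADPH-regenerating system; for CYP4F2, 2.5 μM substrate, 1 mM NADPH, 50 mM KPO4 pH 7.4.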
Sequence of human CYP4F2 (P78329 5-520): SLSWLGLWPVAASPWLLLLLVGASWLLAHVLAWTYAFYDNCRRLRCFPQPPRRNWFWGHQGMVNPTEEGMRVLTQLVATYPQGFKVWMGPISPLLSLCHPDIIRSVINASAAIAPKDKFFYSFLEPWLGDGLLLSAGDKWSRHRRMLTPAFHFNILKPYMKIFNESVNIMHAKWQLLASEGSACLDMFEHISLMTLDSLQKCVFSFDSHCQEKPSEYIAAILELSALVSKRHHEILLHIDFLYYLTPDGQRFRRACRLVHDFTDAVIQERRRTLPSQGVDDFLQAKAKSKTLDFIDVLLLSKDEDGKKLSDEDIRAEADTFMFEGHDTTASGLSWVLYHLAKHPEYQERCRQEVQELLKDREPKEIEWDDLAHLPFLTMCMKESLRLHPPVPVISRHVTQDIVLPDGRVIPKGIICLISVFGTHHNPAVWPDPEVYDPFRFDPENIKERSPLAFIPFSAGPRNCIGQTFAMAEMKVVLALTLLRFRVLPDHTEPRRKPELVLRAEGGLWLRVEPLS

Assay [2] has as its target human CYP4A11 (Homo sapiens (Human), UniProt Q02928). In words: Inhibition test against 20-HETE producing enzyme CYP4A11 (luciferine derivative, luminescence). Format: biochemical. Put shortly:
as §1

Where [3] appears, read: E. coli membrane fraction expressing human CYP4F2, 2.5 μM luciferine derivative, room temperature 60 minutes.
The mark [4] stands for this setting: E. coli membrane fraction expressing human CYP4A11, 60 μM luciferine derivative, room temperature 60 minutes.
Where [5] appears, read: human CYP4F2, luciferine derivative, luminescence.
Setting [6] is: human CYP4A11, luciferine derivative, luminescence.

Sequence of human CYP4A11 (Q02928 5-519): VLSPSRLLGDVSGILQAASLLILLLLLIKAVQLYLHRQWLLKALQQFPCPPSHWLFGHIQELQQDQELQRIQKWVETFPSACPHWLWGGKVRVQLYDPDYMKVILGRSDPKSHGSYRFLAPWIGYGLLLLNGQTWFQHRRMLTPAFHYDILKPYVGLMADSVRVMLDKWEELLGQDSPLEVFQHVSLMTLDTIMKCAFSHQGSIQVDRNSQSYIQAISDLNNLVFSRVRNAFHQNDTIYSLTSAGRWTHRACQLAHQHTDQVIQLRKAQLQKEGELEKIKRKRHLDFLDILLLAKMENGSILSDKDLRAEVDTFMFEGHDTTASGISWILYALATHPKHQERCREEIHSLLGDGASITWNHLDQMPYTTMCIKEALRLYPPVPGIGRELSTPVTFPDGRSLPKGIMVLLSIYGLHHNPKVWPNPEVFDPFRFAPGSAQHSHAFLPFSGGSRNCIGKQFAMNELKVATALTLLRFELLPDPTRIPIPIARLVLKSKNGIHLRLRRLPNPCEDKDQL

For `O=C(O)c1ccccc1CCCOc1ccc(-c2ccn[nH]2)nc1` [Example 1-10], the IC50 in assay [1] (setting [3]) turned out to be 27 µM; in assay [2] (setting [4]), 4.2 µM.
Take `O=C(O)Cc1ccccc1COc1ccc(-c2ccn[nH]2)nc1` [Example 21-2]: the IC50 in assay [1] (setting [3]) was > 50 µM; in assay [2] (setting [4]), 3.8 µM.
With `CC(C)(COc1ccc(CCOc2ccc(-c3ccn[nH]3)nc2)cn1)C(=O)O` [Example 71-33], the 50% inhibitory concentration (IC50) came to 0.6 µM in assay [1] (setting [5]) and 1.6 µM in assay [2] (setting [6]).
On to `Oc1cccc(CCOc2ccc(-c3ccn[nH]3)nc2)c1` [Example 13-3], for which the figures for the IC50 in assay [1] (setting [3]) and in assay [2] (setting [4]) were 0.019 µM and 0.3 µM, respectively.
For `O=C(O)[C@@H]1CCc2ccc(CCOc3ccc(-c4ccn[nH]4)nc3)cc2O1` [Example 71-22-2], the results for the IC50 in assay [1] (setting [5]) and in assay [2] (setting [6]) were 0.16 µM and 1 µM, respectively.
Regarding `Oc1cccc(COc2ccc(-c3ccn[nH]3)nc2)c1` [Example 13-1, 3-[[6-(1H-Pyrazol-5-yl)-3-pyridinyl]oxymethyl]phenol], the figures for the IC50 in assay [1] (setting [3]) and in assay [2] (setting [4]) were 0.034 µM and 0.61 µM, respectively.
As to `O=C(O)[C@@H]1CCc2ccc(COc3ccc(-c4ccn[nH]4)nc3)cc2C1` [Example 69-1-1], the IC50 in assay [1] (setting [5]) came out at 0.24 µM; in assay [2] (setting [6]), 0.021 µM.
With `O=C(O)c1cccc(CCCCOc2ccc(-c3ccn[nH]3)nc2)n1` [Example 29-5], the IC50 in assay [1] (setting [3]) was 0.69 µM; in assay [2] (setting [4]), 0.029 µM.
For `O=C(O)c1cncc(-c2cccc(COc3ccc(-c4ccn[nH]4)nc3)c2)c1` [Example 31-4] the same measures were 0.39 µM and 0.012 µM.
Consider `O=C(O)[C@@H]1COc2ccc(COc3ccc(-c4ccn[nH]4)nc3)cc2C1` [Example 69-2-1], for which the IC50 in assay [1] (setting [5]) was determined as 0.6 µM; in assay [2] (setting [6]), 0.037 µM.
In the same order, the values of `O=C(O)[C@H]1CCc2ccc(COc3ccc(-c4ccn[nH]4)nc3)cc2C1` [Example 69-1-2] are 0.2 µM and 0.025 µM.
With `O=C(CCc1cccc(COc2ccc(-c3ccn[nH]3)nc2)c1)NC[C@@H]1CCCO1` [Example 43-14], the figures for the IC50 in assay [1] (setting [5]) and in assay [2] (setting [6]) were 0.018 µM and 0.052 µM, respectively.
In the same order, the values of `O=C(CCc1cccc(COc2ccc(-c3ccn[nH]3)nc2)c1)N1CCCCC1` [Example 42-14] are 0.03 µM and 0.24 µM.
On to `O=C(O)C1CCCC(COc2ccc(-c3ccn[nH]3)nc2)C1` (centres unmarked) [Example 1-54], for which the IC50 in assay [1] (setting [3]) amounted to 3.4 µM; in assay [2] (setting [4]), 0.057 µM.
Turning to `O=C(O)C1CC(c2ccc(CCOc3ccc(-c4ccn[nH]4)nc3)cc2)C1` (centres unmarked) [Example 71-20], the results for the IC50 in assay [1] (setting [5]) and in assay [2] (setting [6]) were 0.19 µM and 0.5 µM, respectively.
For `CN(C)C(=O)[C@H]1C[C@](O)(c2cccc(COc3ccc(-c4ccn[nH]4)nc3)c2)C1` [Example 42-21] the same measures were 0.028 µM and 0.43 µM.
In the same order, the values of `C[C@H](CO)NC(=O)CCc1cccc(COc2ccc(-c3ccn[nH]3)nc2)c1` [Example 43-8] are 0.12 µM and 0.12 µM.
In the same order, the values of `O=C(CCc1cccc(COc2cnc(-c3ccn[nH]3)c(F)c2)c1)N1CCC1` [Example 42-17] are 0.012 µM and 0.035 µM.
In the case of `O=C(O)c1cc(COc2ccc(-c3ccn[nH]3)nc2)ccc1F` [Example 22-15], the values for the IC50 in assay [1] (setting [3]) and in assay [2] (setting [4]) were 14 µM and 0.092 µM, respectively.
For `O=C(O)C1CCc2cc(COc3ccc(-c4ccn[nH]4)nc3)ccc2O1` (centres unmarked) [Example 1-69] the same measures were 3 µM and 0.075 µM.
`O=C(O)C1(OCCCCCCCOc2ccc(-c3ccn[nH]3)nc2)CCCC1` [Example 2-3]: the values for the IC50 in assay [1] (setting [3]) and in assay [2] (setting [4]) were 0.075 µM and 0.099 µM, respectively.
With `CC(C)(CCNC(=O)c1cccc(COc2ccc(-c3ccn[nH]3)nc2)n1)C(=O)O` [Example 45-16], the IC50 turned out to be 3.4 µM in assay [1] (setting [5]) and 0.12 µM in assay [2] (setting [6]).
Regarding `O=C(O)c1nc2c(o1)CCN(C(=O)c1cccc(COc3ccc(-c4ccn[nH]4)nc3)c1)C2` [Example 45-46], the IC50 worked out at 0.054 µM in assay [1] (setting [5]) and 0.16 µM in assay [2] (setting [6]).
Regarding `O=C(CCC1(C(=O)O)CCCC1)N1CCCC(CCOc2ccc(-c3ccn[nH]3)nc2)C1` (centres unmarked) [Example 3-4], the IC50 in assay [1] (setting [3]) was found to be 0.26 µM; in assay [2] (setting [4]), 1.8 µM.
For `O=C(O)C1(c2cccc(COc3ccc(-c4ccn[nH]4)nc3)c2)CCOCC1` [Example 33-2, 4-[3-[[6-(1H-Pyrazol-5-yl)-3-pyridinyl]oxymethyl]phenyl]-4-oxanecarboxylic Acid] the same measures were 14 µM and 0.13 µM.
In the same order, the values of `O=C(O)Cc1cccc(COc2ccc(-c3ccns3)nc2)c1` [Example 39-1, 2-[3-[[6-(5-Isothiazolyl)-3-pyridinyl]oxymethyl]phenyl]acetic Acid] are 13 µM and 0.0053 µM.
For `O=C(O)COc1cccc(COc2ccc(-c3ccn[nH]3)nc2)c1` [Example 10-2, 2-[3-[[6-(1H-Pyrazol-5-yl)-3-pyridinyl]oxymethyl]phenoxy]acetic Acid] the same measures were 1.1 µM and 0.023 µM.
As to `O=C(CCc1cccc(COc2ccc(-c3ccn[nH]3)nc2)c1)NCC(=O)N1CCCC1` [Example 43-11], the IC50 in assay [1] (setting [5]) amounted to 0.032 µM; in assay [2] (setting [6]), 0.28 µM.
In the same order, the values of `CC(C)(CNC(=O)c1cccc(COc2ccc(-c3ccn[nH]3)nc2)c1)C(=O)O` [Example 45-3] are 6.1 µM and 0.091 µM.
In the same order, the values of `O=C(O)c1cccc(CCCCCOc2ccc(-c3ccn[nH]3)nc2)n1` [Example 71-14] are 1.3 µM and 0.15 µM.
Consider `O=C(O)[C@H]1C[C@](O)(c2cc(COc3ccc(-c4ccn[nH]4)nc3)ccc2F)C1` [Example 28-2], for which the IC50 in assay [1] (setting [3]) came out at 1 µM; in assay [2] (setting [4]), 0.1 µM.
In the same order, the values of `O=C(O)CCc1ccc(CCOc2ccc(-c3ccn[nH]3)nc2)cc1` [Example 1-15] are 0.67 µM and 0.21 µM.
For `CC(OCCCCCCCOc1ccc(-c2ccn[nH]2)nc1)C(=O)O` (centres unmarked) [Example 71-4], the values for the IC50 in assay [1] (setting [5]) and in assay [2] (setting [6]) were 0.2 µM and 0.27 µM, respectively.
In the same order, the values of `CN(C(C)(C)C(=O)O)S(=O)(=O)c1cccc(COc2ccc(-c3ccn[nH]3)nc2)c1` [Example 75-4] are 29 µM and 0.043 µM.
Take `O=S(=O)(CCO)c1cccc(COc2ccc(-c3ccn[nH]3)nc2)c1` [Example 3-11]: the IC50 in assay [1] (setting [3]) stood at 0.29 µM; in assay [2] (setting [4]), 0.055 µM.
`O=C(N[C@H]1C[C@@H](C(=O)O)C1)c1cccc(COc2ccc(-c3ccn[nH]3)nc2)c1` [Example 45-21]: the IC50 was 6.1 µM in assay [1] (setting [5]) and 0.58 µM in assay [2] (setting [6]).
For the molecule `O=C(O)c1ccc(CCOc2ccc(-c3ccn[nH]3)nc2)cc1` [Example 1-5], the IC50 in assay [1] (setting [3]) worked out at 3.5 µM; in assay [2] (setting [4]) it was 0.15 µM.
Consider `O=C(O)[C@H]1CCCN1C(=O)c1cccc(COc2ccc(-c3ccn[nH]3)nc2)c1` [Example 45-35], for which the IC50 in assay [1] (setting [5]) stood at 13 µM; in assay [2] (setting [6]), 3.2 µM.
For `O=C(O)C1CCN(C(=O)c2cccc(COc3ccc(-c4ccn[nH]4)nc3)c2)CC1` [Example 45-27], the figures for the IC50 in assay [1] (setting [5]) and in assay [2] (setting [6]) were 2.2 µM and 0.51 µM, respectively.
For `CC(C)(O)c1cc(COc2ccc(-c3ccn[nH]3)nc2)ccc1F` [Example 27-5], the IC50 in assay [1] (setting [3]) was 0.9 µM; in assay [2] (setting [4]) it was 0.079 µM.
In the same order, the values of `CC(C)(CCCCCCCOc1ccc(-c2ccn[nH]2)nc1)C(=O)O` [Example 1-62] are 0.096 µM and 0.023 µM.
On to `O=C(O)/C=C/c1cccc(COc2ccc(-c3ccn[nH]3)nc2)c1F` [Example 70-1, (E)-3-[2-Fluoro-3-[[6-(1H-pyrazol-5-yl)pyridin-3-yl]oxymethyl]phenyl]prop-2-enoic Acid], for which the values for the IC50 in assay [1] (setting [5]) and in assay [2] (setting [6]) were 0.049 µM and 0.027 µM, respectively.
`O=C(CCc1cccc(COc2ccc(-c3ccn[nH]3)nc2)c1)N1CCOCC1` [Example 42-15]: the figures for the IC50 in assay [1] (setting [5]) and in assay [2] (setting [6]) were 0.14 µM and 0.4 µM, respectively.
In the same order, the values of `O=C(O)C1(Cc2cccc(CCOc3ccc(-c4ccn[nH]4)nc3)c2F)CC1` [Example 72-8] are 1.7 µM and 0.015 µM.
Consider `O=C(O)[C@H]1CCc2ccc(COc3ccc(-c4ccn[nH]4)nc3)cc2O1` [Example 69-3-2], for which the IC50 in assay [1] (setting [5]) turned out to be 0.3 µM; in assay [2] (setting [6]), 0.22 µM.
In the case of `O=C(O)c1ccccc1CCOc1ccc(-c2ccn[nH]2)nc1` [Example 1-7], the results for the IC50 in assay [1] (setting [3]) and in assay [2] (setting [4]) were 11 µM and 2.4 µM, respectively.
For the molecule `O=C(O)c1cnn(CCCOc2ccc(-c3ccn[nH]3)nc2)c1` [Example 15-2, 1-[3-[[6-(1H-Pyrazol-5-yl)-3-pyridinyl]oxy]propyl]-4-pyrazolecarboxylic Acid], the IC50 worked out at 25 µM in assay [1] (setting [3]) and 0.69 µM in assay [2] (setting [4]).
As for `O=C(CCC1(C(=O)O)CCCC1)N1CCC(CCOc2ccc(-c3ccn[nH]3)nc2)CC1` [Example 3-3], the IC50 in assay [1] (setting [3]) turned out to be 2.3 µM; in assay [2] (setting [4]), 0.39 µM.
Regarding `O=C(NCc1ccccc1C(=O)O)c1cccc(COc2ccc(-c3ccn[nH]3)nc2)c1` [Example 45-26], the 50% inhibitory concentration (IC50) came to 0.88 µM in assay [1] (setting [5]) and 0.031 µM in assay [2] (setting [6]).
Turning to `Cc1cn[nH]c1-c1ccc(OCC23CCC(C(=O)O)(CC2)CC3)cn1` [Example 38-3, 1-[[6-(4-Methyl-1H-pyrazol-5-yl)-3-pyridinyl]oxymethyl]-4-bicyclo[2.2.2]octanecarboxylic Acid], the IC50 came to 17 µM in assay [1] (setting [3]) and 0.035 µM in assay [2] (setting [4]).
Take `O=C(O)[C@H]1CCc2cc(CCOc3ccc(-c4ccn[nH]4)nc3)ccc2O1` [Example 71-8-2]: the half-inhibitory concentration (IC50) came to 0.56 µM in assay [1] (setting [5]) and 0.048 µM in assay [2] (setting [6]).
Consider `O=C(O)C1CC1CCCOc1ccc(-c2ccn[nH]2)nc1` (centres unmarked) [Example 1-27], for which the values for the IC50 in assay [1] (setting [3]) and in assay [2] (setting [4]) were 41 µM and 0.038 µM, respectively.
